Laboratory results published in US9682995B2, “Amino-substituted isothiazoles” (BAYER PHARMA AKTIENGESELLSCHAFT, priority 2013, dated 2017).

Test system: spindle assembly checkpoint
Experiment: SAC-Formation - Nocodazole-Induced Assay
Assay type: cell-based
Settings: Homo sapiens; HeLa cells, nocodazole 0.1 μg/ml, 24 h, phosphorylated histone H3 on serine 10
Excerpt: The spindle assembly checkpoint assures the proper segregation of chromosomes during mitosis. Upon entry into mitosis, chromosomes begin to condensate which is accompanied by the phosphorylation of histone H3 on serine 10. Dephosphorylation of histone H3 on serine 10 begins in anaphase and ends at early telophase. Accordingly, phosphorylation of histone H3 on serine 10 can be utilized as a marker of cells in mitosis. Nocodazole is a microtubule destabilizing substance. Paclitaxel is a microtubule stabilizing compound. Thus, nocodazole as well as paclitaxel interfere with microtubule dynamics and mobilize the spindle assembly checkpoint. […] The mitotic breakthrough can be detected by the decrease of cells with phosphorylation of histone H3 on serine 10. This decline is used as a marker to determine the capability of compounds of the present invention to induce a mitotic breakthrough. The typical morphological alteration of nuclei with a prematurely completed mitosis after SAC-inhibition can be monitored via image analysis routines supporting those findings.
The nocodazole and paclitaxel variations were used to focus on compounds that are capable of inhibiting a SAC induced by both microtubule destabilization as well as microtubule stabilization. When SAC inducing agents and compounds are given simultaneously, inhibitors that effectively block the SAC during formation or abrogation are identified. When cells are incubated with a SAC inducing agent and the SAC interfering compound is given after a defined time, inhibitors are identified that effectively block SAC abrogation.
Cultivated cells of the human cervical tumor cell line HeLa (ATCC CCL-2) were plated at a density of 1000 cells/well in a 1536-well microtiter plate in 2 μl PAA Ham's F12 Medium supplemented with 1% (v/v) glutamine, 1% (v/v) penicillin, 1% (v/v) streptomycin and 10% (v/v) fetal calf serum. After incubation overnight at 37° C., 10 μl/well nocodazole at a final concentration of 0.1 μg/ml were added to cells. Test compounds solubilized in dimethyl sulfoxide (DMSO) were added at various concentrations (0 μM, as well as in the range of 0.005 μM-20 μM; the final concentration of the solvent DMSO was 0.5% (v/v)). Cells were incubated for 24 h at 37° C. in the presence of test compounds in combination with nocodazole. Thereafter, cells were fixed in 4% (v/v) paraformaldehyde in phosphate buffered saline (PBS) at 4° C. overnight then permeabilized in 0.1% (v/v) Triton X™ 100 in PBS at room temperature for 20 min and blocked in 0.5% (v/v) bovine serum albumin (BSA) in PBS at room temperature for 15 min. After washing with PBS, 5 μl/well antibody solution (anti-phospho-histone H3 clone 3H10, FITC; Millipore, Cat #16-222; 1:1000 dilution) was added to cells, which were incubated for 2 h at room temperature. Afterwards, cells were washed with PBS and 5 μl/well solution of HOECHST 33342 dye (5 μg/ml) was added to cells and cells were incubated 15 min at room temperature in the dark. Cells were washed twice with PBS then covered with PBS and stored at 4° C. until analysis. Images were acquired with a PERKIN ELMER OPERA™ High-Content Analysis reader. Images were analyzed with image analysis software MetaXpress™ from Molecular devices utilizing the Mitotic Index application module. In this assay both labels HOECHST 33342 and phosphorylated Histone H3 on serine 10 were measured. HOECHST 33342 labels the DNA and is used to count the cell number. The staining of phosphorylated Histone H3 on serine 10 determines the number of mitotic cells. […] Otherwise cells were arrested at G2/M phase of the cell cycle progression. The raw assay data were further analyzed by four-parametric hill equation using Genedata's Assay Analyzer and Condoseo software.

CCc1ccccc1NC(=O)c1c(C)nsc1Nc1nc(C)cc(C)n1 [Example 127]
IC50: > 20 µM

CCOC(=O)c1cnc(Nc2snc(C)c2C(=O)Nc2ccc(OC)nc2)o1 [Example 150]
IC50: 16 µM

CCc1cnc(Nc2snc(C)c2C(=O)Nc2ccccc2CC)nc1 [Example 136]
IC50: 6.8 µM

CCc1ccccc1NC(=O)c1c(C)nsc1Nc1ncccc1OC [Example 144]
IC50: > 20 µM

Cc1nsc(Nc2cc(C(=O)N(C)C)ccn2)c1C(=O)Nc1ccc(F)c(F)c1 [Example 130]
IC50: > 20 µM

Cc1nsc(Nc2ccc(C(=O)N(C)C)nn2)c1C(=O)Nc1ccc(F)c(F)c1 [Example 153]
IC50: 1.5 µM

CCc1ccccc1NC(=O)c1c(C)nsc1Nc1ccc(C(=O)OC)cn1 [Example 145]
IC50: 7.2 µM

CCNC(=O)c1cnc(Nc2snc(C)c2C(=O)Nc2ccc(OC)nc2)s1 [Example 154]
IC50: 4.3 µM

CCc1ccccc1NC(=O)c1c(C)nsc1Nc1ccccn1 [Example 142]
IC50: 14 µM

COc1ccc(NC(=O)c2c(C)nsc2Nc2nc(C(N)=O)cs2)cn1 [Example 160]
IC50: 2.6 µM

COc1ccc(NC(=O)c2c(C)nsc2Nc2ncc(C#N)s2)cn1 [Example 158]
IC50: 4.2 µM

COc1ccc(Oc2ccc(NC(=O)c3c(C)nsc3Nc3ccc(C#N)cn3)cn2)cc1 [Example 157]
IC50: 2.8 µM

CCc1ccccc1NC(=O)c1c(C)nsc1Nc1ncnc(C)c1C [Example 159]
IC50: 15 µM

CCc1ccccc1NC(=O)c1c(C)nsc1Nc1nccc2ccccc12 [Example 138]
IC50: 17 µM

Cc1nsc(Nc2cncc(C(=O)N3CCN(C)CC3)n2)c1C(=O)Nc1ccc(F)c(F)c1 [Example 133]
IC50: 15 µM

CNc1cncc(Nc2snc(C)c2C(=O)Nc2ccc(F)c(F)c2)n1 [Example 132]
IC50: 14 µM

CCc1ccccc1NC(=O)c1c(C)nsc1Nc1cc(C(=O)OC)ccn1 [Example 149]
IC50: 4.1 µM

COc1ccc(NC(=O)c2c(C)nsc2Nc2nc3c(C(F)(F)F)ccnc3s2)cn1 [Example 123]
IC50: 0.22 µM

CCc1ccccc1NC(=O)c1c(C)nsc1Nc1cnc(C(N)=O)cn1 [Example 161]
IC50: 15 µM

CCc1ccccc1NC(=O)c1c(C)nsc1Nc1ncccc1C [Example 141]
IC50: 19 µM

COc1ccc(NC(=O)c2c(C)nsc2Nc2ncc(C(=O)N(C)C)s2)cn1 [Example 155]
IC50: 5.8 µM

CCOC(=O)c1cc(C)nc(Nc2snc(C)c2C(=O)Nc2ccccc2CC)c1 [Example 139]
IC50: > 20 µM

CCc1ccccc1NC(=O)c1c(C)nsc1Nc1cccc(OC)n1 [Example 148]
IC50: > 20 µM

Cc1nsc(Nc2cnccn2)c1C(=O)Nc1ccc(OC2CCCCC2)nc1 [Example 163]
IC50: 1.3 µM

COc1ccc(NC(=O)c2c(C)nsc2Nc2ccc(C#N)cn2)cc1F [Example 162]
IC50: > 20 µM

COc1ccc(NC(=O)c2c(C)nsc2Nc2nc3ncc(C(F)(F)F)cc3s2)cn1 [Example 124]
IC50: 18 µM

COc1ccc(NC(=O)c2c(C)nsc2Nc2ncc(C(=O)N3CCOCC3)s2)cn1 [Example 128]
IC50: 13 µM

COc1ccc(NC(=O)c2c(C)nsc2Nc2nc(-c3ccc(Cl)cc3)cs2)cn1 [Example 156]
IC50: 0.55 µM

COc1ccc(NC(=O)c2c(C)nsc2Nc2ncc(C(N)=O)s2)cn1 [Example 152]
IC50: > 20 µM

COC(=O)c1cnc(Nc2snc(C)c2C(=O)Nc2ccc(OC)nc2)o1 [Example 147]
IC50: 13 µM

COc1ccnc(Nc2snc(C)c2C(=O)Nc2ccc(F)c(F)c2)c1 [Example 125]
IC50: > 20 µM

COC(=O)c1ccnc(Nc2snc(C)c2C(=O)Nc2ccc(OC)nc2)c1 [Example 140]
IC50: > 20 µM

CCc1ccccc1NC(=O)c1c(C)nsc1Nc1cnc(C(=O)OC)cn1 [Example 146]
IC50: 1.4 µM

COc1ccc(NC(=O)c2c(C)nsc2Nc2nc3cnccc3s2)cn1 [Example 129]
IC50: 14 µM

Cc1nsc(Nc2nc(C(=O)N(C)C)cs2)c1C(=O)Nc1ccc(F)c(F)c1 [Example 131]
IC50: 11 µM

COc1ccc(NC(=O)c2c(C)nsc2Nc2ncc(C(=O)O)s2)cn1 [Example 126]
IC50: 19 µM

CCc1ccccc1NC(=O)c1c(C)nsc1Nc1ncc(OC)cn1 [Example 135]
IC50: 16 µM

Cc1nsc(Nc2ccc(C(N)=O)cn2)c1C(=O)Nc1ccc(Cl)c(F)c1 [Example 151]
IC50: 1.7 µM

CCOc1ccc(NC(=O)c2c(C)nsc2Nc2cc(C#N)ccn2)cn1 [Example 143]
IC50: > 20 µM

CCc1ccccc1NC(=O)c1c(C)nsc1Nc1cc(OC)ccn1 [Example 134]
IC50: > 20 µM

CCc1ccccc1NC(=O)c1c(C)nsc1Nc1ncccn1 [Example 137]
IC50: > 20 µM
